Source: patent US10301284B2, “Therapeutic inhibitory compounds” (LifeSci Pharmaceuticals, Inc., priority 2016, dated 2019)
Like-named read-outs stand apart in the source and are kept apart here.

Target: human Plasma Kallikrein (Homo sapiens (Human), UniProt P03952)
Experiment: In vitro enzyme inhibition of human plasma kallikrein (Pro-Phe-Arg-AMC cleavage)
Assay type: biochemical
Method: The ability of the compounds disclosed herein to inhibit human plasma kallikrein activity was quantified according to the procedures below.
A 10 mM solution of the test compound was made in DMSO. This solution was serially diluted 1:5 in DMSO to yield 2000, 400, 80, 16, 3.2, 0.64, 0.128, 0.0256 and 0.00512 μM compound test solutions. A control tube containing only DMSO is included. 16 μL of each compound test solution was combined with 384 μL of assay buffer (50 mM Tris-HCl pH 7.5, 150 mM NaCl, 0.01% Triton X-100) to yield a “4× test compound buffer stock”.
Separately, a 40 nM solution of human Plasma Kallikrein (Abcam) and a 93.6 μM solution Pro-Phe-Arg-AMC (Bachem) were made using assay buffer. These solutions are hereby referred to as 4×hPK and 2×PFR-AMC, respectively.
60 μL of each 4× test compound buffer stock was combined with 60 μL of 4×hPK to yield 120 μL of “2× test compound buffer stock/2×hPK”. 50 μL was removed from this mixture and placed into duplicate wells on a Microfluor 1Black U-bottom microtiter plate (Thermo Scientific). This plate was incubated for 5 minutes at 37° C. To each well, 50 μL of pre-warmed 2×PFR-AMC was added to start the enzymatic reaction. Cleavage of PFR-AMC was monitored in a Biotek Synergy H4 reader set at 37° C. Readings are taken every 43 seconds for 1 hour. The highest mean velocity over 20 reads (˜15 minutes) is used to calculate the IC50. The IC50 is calculated using the Gen5 (Biotek Instruments).
The ability of the compounds listed in Table 2 to inhibit human plasma kallikrein activity was determined.

[1] = human plasma kallikrein, PFR-AMC substrate, 37° C., read-out: hPK IC50

Chain of human Plasma Kallikrein (P03952 391-638 limits assumed): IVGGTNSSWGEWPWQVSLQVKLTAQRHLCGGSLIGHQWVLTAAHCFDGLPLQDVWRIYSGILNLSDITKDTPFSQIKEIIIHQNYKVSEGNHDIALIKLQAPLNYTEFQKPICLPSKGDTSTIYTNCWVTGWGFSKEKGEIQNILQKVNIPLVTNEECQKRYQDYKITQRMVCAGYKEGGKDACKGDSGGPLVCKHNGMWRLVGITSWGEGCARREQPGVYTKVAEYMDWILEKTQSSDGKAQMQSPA
Chain of human Plasma Kallikrein (P03952 20-390 partner limits assumed): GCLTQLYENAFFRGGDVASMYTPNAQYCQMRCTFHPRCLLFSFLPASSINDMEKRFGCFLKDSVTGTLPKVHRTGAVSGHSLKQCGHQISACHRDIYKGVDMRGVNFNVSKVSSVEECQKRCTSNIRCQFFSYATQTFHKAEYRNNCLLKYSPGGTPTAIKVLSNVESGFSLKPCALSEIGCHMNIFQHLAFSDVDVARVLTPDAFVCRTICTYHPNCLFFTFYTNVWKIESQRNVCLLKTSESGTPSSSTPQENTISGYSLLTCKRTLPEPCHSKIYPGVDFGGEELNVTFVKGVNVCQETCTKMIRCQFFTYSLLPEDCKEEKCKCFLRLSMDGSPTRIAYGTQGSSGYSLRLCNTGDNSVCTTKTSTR

| Molecule | IC50 [1] [nM] | IC50 [nM] |
| --- | --- | --- |
| N-((6-amino-2,4-dimethylpyridin-3-yl)methyl)-1-((3-chloroquinolin-6-yl)methyl)-3-cyano-1H-1,2,4-triazole-5-carboxamide [Example 107] | 100 to 1000 | – |
| Cc1cc(N)nc(C)c1CNC(=O)c1c(C(F)(F)F)nnn1Cc1ccc2ncc(Cl)cc2c1 [Example 141, N-((6-amino-2,4-dimethylpyridin-3-yl)methyl)-1-((3-chloroquinolin-6-yl)methyl)-4-(trifluoromethyl)-1H-1,2,3-triazole-5-carboxamide] | > 10000 | – |
| Cc1cc(N)nc(C)c1CNC(=O)c1cc(C#N)nn1Cc1ccc2ncc(Cl)cc2c1 [Example 109, N-((6-amino-2,4-dimethylpyridin-3-yl)methyl)-1-((3-chloroquinolin-6-yl)methyl)-3-cyano-1H-pyrazole-5-carboxamide] | > 10000 | – |
| COc1cc2c(C(=O)NCc3c(C)cc(N)nc3C)cn(Cc3ccc4ncc(Cl)cc4c3)c2cn1 [Example 121, N-((6-amino-2,4-dimethylpyridin-3-yl)methyl)-1-((3-chloroquinolin-6-yl)methyl)-5-methoxy-1H-pyrrolo[2,3-c]pyridine-3-carboxamide] | < 100 | – |
| Cc1cc(N)nc(C)c1CNC(=O)c1cn(Cc2cc(C(N)=O)c3ncc(Cl)cc3c2)nc1C#N [Example 72, 6-((4-(((6-amino-2,4-dimethylpyridin-3-yl)methyl)carbamoyl)-3-cyano-1H-pyrazol-1-yl)methyl)-3-chloroquinoline-8-carboxamide] | < 100 | – |
| Cc1cc(N)nc(C)c1CNC(=O)c1nn(Cc2ccc3ncc(Cl)cc3c2)c2cccc(N)c12 [Example 33, 4-amino-N-((6-amino-2,4-dimethylpyridin-3-yl)methyl)-1-((3-chloroquinolin-6-yl)methyl)-1H-indazole-3-carboxamide] | – | 100 to 1000 |
| Cc1cc(N)nc(C)c1CNC(=O)c1nc(Cc2ccc3ncc(Cl)cc3c2)nn1C [Example 99, N-((6-amino-2,4-dimethylpyridin-3-yl)methyl)-3-((3-chloroquinolin-6-yl)methyl)-1-methyl-1H-1,2,4-triazole-5-carboxamide] | < 100 | – |
| Cc1cc(N)nc(C)c1CNC(=O)c1cnc(C(=O)c2ccc3ncc(Cl)cc3c2)o1 [Example 80, N-((6-amino-2,4-dimethylpyridin-3-yl)methyl)-2-(3-chloroquinoline-6-carbonyl)oxazole-5-carboxamide] | > 10000 | – |
| Cc1cc(N)nc(C)c1CNC(=O)c1cn(Cc2ccc3ncc(Cl)cc3c2)nc1CF [Example 93, N-((6-amino-2,4-dimethylpyridin-3-yl)methyl)-1-((3-chloroquinolin-6-yl)methyl)-3-(fluoromethyl)-1H-pyrazole-4-carboxamide] | < 100 | – |
| Cc1cc(N)nc(C)c1CNC(=O)c1c[nH]c(Cc2ccc3ncc(Cl)cc3c2)n1 [Example 103, N-((6-amino-2,4-dimethylpyridin-3-yl)methyl)-2-((3-chloroquinolin-6-yl)methyl)-1H-imidazole-4-carboxamide] | < 100 | – |
| Cc1cc(N)nc(C)c1CNC(=O)c1cn(Cc2ccc3ncc(Cl)cc3c2)c2cnc(Cl)cc12 [Example 117, N-((6-amino-2,4-dimethylpyridin-3-yl)methyl)-5-chloro-1-((3-chloroquinolin-6-yl)methyl)-1H-pyrrolo[2,3-c]pyridine-3-carboxamide] | < 100 | – |
| N#Cc1nn(Cc2ccc3ncc(Cl)cc3c2)cc1C(=O)NCc1ccc2[nH]cc(Cl)c2c1F [Example 47, N-((3-chloro-4-fluoro-1H-indol-5-yl)methyl)-1-((3-chloroquinolin-6-yl)methyl)-3-cyano-1H-pyrazole-4-carboxamide] | 100 to 1000 | – |
| COc1ncnc2c1c(C(=O)NCc1c(C)cc(N)nc1C)cn2Cc1ccc2ncc(Cl)cc2c1 [Example 131, N-((6-amino-2,4-dimethylpyridin-3-yl)methyl)-7-((3-chloroquinolin-6-yl)methyl)-4-methoxy-7H-pyrrolo[2,3-d]pyrimidine-5-carboxamide] | – | 100 to 1000 |
| COc1ccc2c(n1)c(C(=O)NCc1c(C)cc(N)nc1C)cn2Cc1ccc2ncc(Cl)cc2c1 [Example 128, N-((6-amino-2,4-dimethylpyridin-3-yl)methyl)-1-((3-chloroquinolin-6-yl)methyl)-5-methoxy-1H-pyrrolo[3,2-b]pyridine-3-carboxamide] | – | 1000 to 10000 |
| Cc1cc(N)nc(C)c1CNC(=O)c1cn(Cc2ccc3ncc(Cl)cc3c2)c2nc[nH]c(=O)c12 [Example 132, N-((6-amino-2,4-dimethylpyridin-3-yl)methyl)-7-((3-chloroquinolin-6-yl)methyl)-4-oxo-4,7-dihydro-3H-pyrrolo[2,3-d]pyrimidine-5-carboxamide] | > 10000 | – |
| N#Cc1nn(Cc2cc(F)c3ncc(Cl)cc3c2)cc1C(=O)NCc1cc2c(Cl)c[nH]c2cc1F [Example 53, N-((3-chloro-6-fluoro-1H-indol-5-yl)methyl)-1-((3-chloro-8-fluoroquinolin-6-yl)methyl)-3-cyano-1H-pyrazole-4-carboxamide] | < 100 | – |
| Cc1cc(N)nc(C)c1CNC(=O)c1oc(Cc2ccc3ncc(Cl)cc3c2)nc1C#N [Example 87, N-((6-amino-2,4-dimethylpyridin-3-yl)methyl)-2-((3-chloroquinolin-6-yl)methyl)-4-cyanooxazole-5-carboxamide] | < 100 | – |
| Cc1cc(N)nc(C)c1CNC(=O)c1nc(Cc2ccc3ncc(Cl)cc3c2)c2ccccn12 [Example 23, N-((6-amino-2,4-dimethylpyridin-3-yl)methyl)-1-((3-chloroquinolin-6-yl)methyl)imidazo[1,5-a]pyridine-3-carboxamide] | < 100 | – |
| O=C(NCc1cnc2[nH]cc(Cl)c2c1)c1nnc(Cc2ccc3ncc(Cl)cc3c2)o1 [Example 45, N-((3-chloro-1H-pyrrolo[2,3-b]pyridin-5-yl)methyl)-5-((3-chloroquinolin-6-yl)methyl)-1,3,4-oxadiazole-2-carboxamide] | 100 to 1000 | – |
| Cc1cc(N)nc(C)c1CNC(=O)c1cnc(Cc2ccc3ncc(Cl)cc3c2)o1 [Example 89, N-((6-amino-2,4-dimethylpyridin-3-yl)methyl)-2-((3-chloroquinolin-6-yl)methyl)oxazole-5-carboxamide] | < 100 | – |
| Cc1cc(N)nc(C)c1CNC(=O)c1ncc(Cc2ccc3ncc(Cl)cc3c2)[nH]1 [Example 41, N-((6-amino-2,4-dimethylpyridin-3-yl)methyl)-5-((3-chloroquinolin-6-yl)methyl)-1H-imidazole-2-carboxamide] | 100 to 1000 | – |
| Cc1cc(N)nc(C)c1CNC(=O)c1nc(Br)n(Cc2ccc3ncc(Cl)cc3c2)n1 [Example 100, N-((6-amino-2,4-dimethylpyridin-3-yl)methyl)-5-bromo-1-((3-chloroquinolin-6-yl)methyl)-1H-1,2,4-triazole-3-carboxamide] | < 100 | – |
| Cc1cc(N)nc(C)c1CNC(=O)c1nn(Cc2ccc3ncc(Cl)cc3c2)c2c[nH]c(=O)cc12 [Example 124, N-((6-amino-2,4-dimethylpyridin-3-yl)methyl)-1-((3-chloroquinolin-6-yl)methyl)-5-oxo-5,6-dihydro-1H-pyrazolo[3,4-c]pyridine-3-carboxamide] | 100 to 1000 | – |
| N#Cc1nn(Cc2ccc3ncc(Cl)cc3c2)cc1C(=O)NCc1cnc2[nH]cc(Cl)c2c1 [Example 50, N-((3-chloro-1H-pyrrolo[2,3-b]pyridin-5-yl)methyl)-1-((3-chloroquinolin-6-yl)methyl)-3-cyano-1H-pyrazole-4-carboxamide] | 100 to 1000 | – |
